In patent publication US10065950B2, “Substituted thiazoles as HIV integrase inhibitors” (Japan Tobacco Inc., priority 2010, dated 2018):

Molecular target: HIV-1 pNL4-3 integrase (Human immunodeficiency virus type 1 group M subtype B (isolate NY5) (HIV-1), UniProt P12497)
Assay: Determination of enzyme (HIV integrase) inhibitory activity
Type: biochemical
Settings: calculated from inhibition rate (fluorescence)
Outline: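 Full-length pNL4-3 integrase from E. coli (0.75 μM stock) reacted 60 min at 37° C with compound and biotinylated donor DNA bound to streptavidin plates, in MOPS buffer with 5 mM MgCl2 and 10% DMSO. Digoxigenin-labelled target DNA (25 nM stock) then added for 20 min; strand transfer read by peroxidase anti-digoxigenin fluorescence (Ex 325/Em 420 nm).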

Row | Compound | IC50
1 | COC[C@H]1CN(C(C)C)C(=O)c2c(O)c(=O)c(-c3nnc(CCCc4ccc(F)cc4)s3)cn21 [Example 242] | 13 nM
2 | CO[C@H](C)[C@@H]1CN(C(C)C)C(=O)c2c(O)c(=O)c(-c3nnc(Cc4ccc(F)cc4)s3)cn21 [Example 338] | 7.1 nM
3 | CCC(CC)N1C(=O)c2c(O)c(=O)c(-c3nnc(Cc4ccc(F)cc4)s3)cn2C[C@H]1COC [Example 295] | 12 nM
4 | COC[C@H]1CN(C(C)(C)C)C(=O)c2c(O)c(=O)c(-c3nnc(Cc4ccc(F)cc4F)s3)cn21 [Example 131] | 13 nM
5 | CCNC(=O)[C@@]1(C)CN(C(C)(C)C)C(=O)c2c(O)c(=O)c(-c3nnc(Cc4ccc(F)cc4)s3)cn21 [Example 189] | 20 nM
6 | CC(C)N1C(=O)c2c(O)c(=O)c(-c3nnc(Cc4ccc(F)cc4F)s3)cn2C[C@H]1C [Example 156] | 4.6 nM
7 | CCN1C(=O)c2c(O)c(=O)c(-c3nnc(Cc4ccc(F)cc4)s3)cn2C[C@]1(C)COCCOC [Example 323] | 14 nM
8 | COC[C@@H]1[C@@H](C)N(C(C)C)C(=O)c2c(O)c(=O)c(-c3nnc(Cc4ccc(F)cc4)s3)cn21 [Example 288] | 8.8 nM
